Laboratory results: PMC9764287, “Multivalent Fucosides Targeting β-Propeller Lectins from Lung Pathogens with Promising Anti-Adhesive Properties” (ACS Chemical Biology, 2022)
Values joined by “and” are separate entries in the source; they are usually repeats but may differ in a detail not shown here. Identical values can stand only once. Like-named read-outs stand apart in the source and are kept apart here.

How the values were obtained:
FleA [1] = target: T1, FleA (Aspergillus fumigatus, UniProt Q4WW81); assay: Isothermal titration calorimetry (ITC); type: binding; conditions: for Kd: 20 mM Tris, 100 mM NaCl, pH 8.0; for N stoichiometry FleA ITC: ratio of compound per FleA monomer (six binding sites); for -TΔS (kJ/mol) FleA binding / ΔH (kJ/mol) FleA binding: Table S1, ITC 25 °C
T1 construct: 6xHis (TEV-cleavable) (N, cleaved yes); made in house
T1 sequence (Q4WW81 whole entry): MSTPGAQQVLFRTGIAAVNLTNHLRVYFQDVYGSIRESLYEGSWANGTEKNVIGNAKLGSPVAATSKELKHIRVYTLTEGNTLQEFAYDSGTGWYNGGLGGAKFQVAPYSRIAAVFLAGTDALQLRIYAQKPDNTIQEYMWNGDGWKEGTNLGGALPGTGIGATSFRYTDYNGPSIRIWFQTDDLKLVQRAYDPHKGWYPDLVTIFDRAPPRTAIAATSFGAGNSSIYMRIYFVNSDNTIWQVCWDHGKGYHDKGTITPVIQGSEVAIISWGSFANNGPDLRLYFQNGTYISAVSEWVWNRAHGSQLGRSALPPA
Text: (§1) Due to the time-consuming measurements and the high quantity of protein necessary in some techniques, we selected only the four inhibitors with the largest size (compounds with PEGn=4 and hPG-20) for further biophysical analysis. More in-depth studies were continued by isothermal titration calorimetry (ITC) and bio-layer interferometry (BLI), which confirmed the trends previously seen by FP (Table 2). In the ITC experiments, the fungal lectins bound their monovalent reference with a stoichiometry (N) value around […], which is consistent with the number of high-affinity binding sites per monomer. With the value close to […] obtained for BambL, the reference experiments are indicative of active recombinant proteins and correlate well with previous findings in the literature.[39],[41] […] This calls for a likely mixed chelate-aggregative binding, whose precise architecture cannot be determined based solely on the compound/protein ratio.
(§2) 1.2 I sotherm al ti trati on c al ori m etry
(§3) Protein targets were pl ace d i n t he sample cell at concentrations ranging between 50 an d 8.5 μM at 25 °C. […]
Ta b le S1. Microcalorimetry data relative to Fl e A binding.

BambL [2] = target: T2, BambL (Burkholderia ambifaria, UniProt Q0B4G1); assay: Isothermal titration calorimetry (ITC); type: binding; conditions: for Kd: 20 mM Tris, 100 mM NaCl, pH 8.0; for -TΔS (kJ/mol) BambL binding / ΔH (kJ/mol) BambL binding / N BambL binding (Table S3): Table S3, ITC 25 °C; for N BambL binding (Table S3): as printed in SI, one third of the per-trimer N of Table 2
T2 sequence (Q0B4G1 1-87): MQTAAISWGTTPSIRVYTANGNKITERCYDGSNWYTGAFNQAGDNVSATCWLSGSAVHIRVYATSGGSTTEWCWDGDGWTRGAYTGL
Text: as §1, §2, §3
Ta b le S3. Microcalorimetry data relative to B am bL binding.

FleA [3] = target: T1, FleA; set-up: method as in PMID 25760594; conditions: SPR experiment; read-out: Kd of binding for FleA; cited from earlier work
BambL [4] = target: T2, BambL; assay: Competitive fluorescence polarization (FP) assay; type: binding; conditions: Fuc-FITC probe 6 nM, protein 100 nM, average over two independent experiments, read-out: IC50 (nM) ± SD BambL
Text: (§4) With the targeted lectins in hand, we could screen the inhibitory properties of the synthesized compounds by a competitive binding assay based on fluorescence polarization (FP). […] In general, results confirmed the power of multivalency as IC50 values improved from the micromolar range for the monosaccharide reference to the nanomolar range for the multivalent counterparts (Table 1).
(§5) 1.1 F l uoresc en c e pol ari z ati on c om peti ti ve assay
(§6) The fluorescen t ligan d Fu c -FI TC (F i g ur e S 1 ) w as pr e par e d f r om com poun d 2a followin g a protocol reported in literature.1 T y pi cal l y , a s t ock s ol uti on of pr ote i n (f i n al con ce n tr ati on 100 n M) an d Fu c -FI TC (final concentration 6 n M) w e r e adde d to 3 -f ol d serial dilution s of testin g compoun ds in dupl i cat e s on a bl ack 9 6 well microtiter plate (CO S T A R TM 96) . […] The starting concentration for the monovalent com poun d w as 3 mM an d 5 -fold dilution s were used in this case. All compon en ts were dissolved in the same buffer (20 mM Tris, 100 mM N aCl , pH 8.0). After addition of the reagents, the microtiter plates were s hak e d f or 1 h at room temperature i n t he dar k . […] A fluorescen ce in ten sity spectral scan of the multivalent compounds alone was also performed to confirm no interference with the analysis. […] The point of inflection was used to determine the IC50 value of each experiment. […]
(§7) Fi gu re S1 . The structure of the fluorescent probe Fu c -FI TC.

FleA [5] = target: T1, FleA; assay: Competitive fluorescence polarization (FP) assay; type: binding; conditions: Fuc-FITC probe 6 nM, protein 100 nM, average over two independent experiments, read-out: IC50 (nM) ± SD FleA
Text: as §4, §5, §6, §7

SapL1 [6] = target: T3, SapL1 (Scedosporium apiospermum, UniProt A0A084FYP2); assay: Competitive fluorescence polarization (FP) assay; type: binding; conditions: read-out: IC50 (nM) ± SD SapL1, Fuc-FITC probe 6 nM, protein 100 nM, average over two independent experiments
T3 sequence (A0A084FYP2 entry or part of it): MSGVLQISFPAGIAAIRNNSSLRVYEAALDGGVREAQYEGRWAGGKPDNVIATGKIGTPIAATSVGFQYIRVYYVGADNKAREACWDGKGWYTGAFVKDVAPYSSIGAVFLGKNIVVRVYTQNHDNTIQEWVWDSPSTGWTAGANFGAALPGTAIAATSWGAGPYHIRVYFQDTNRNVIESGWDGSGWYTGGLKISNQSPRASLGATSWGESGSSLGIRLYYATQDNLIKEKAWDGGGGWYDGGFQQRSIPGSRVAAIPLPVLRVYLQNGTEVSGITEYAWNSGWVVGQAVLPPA
Text: as §4, §5, §6, §7

BambL [7] = target: T2, BambL; assay: Bio-layer interferometry (BLI), biotinylated lectin on streptavidin sensor; type: binding; conditions: read-out: Kobs (nM) BambL BLI; 25 °C; protein immobilized
Text: (§8) Applying different techniques to study the mechanism of multivalent binding is always advisable to better understand the process at a molecular level.[44] BLI is a biophysical technique where the target protein can be immobilized on the surface of the sensor, so problems related to aggregation should be eliminated. This technology has in fact been applied to the study of lectin-multivalent glycoconjugate interactions in a reliable, low-cost, and fast way.[45] […] A discrepancy of this nature is not too surprising considering that in the BLI experiment, one of the binding partners is immobilized, so its Kd’s might be better labeled as Kobs. Different techniques measure inherently different properties. It has been pointed out in a recent publication that drastically different outcomes can be obtained from solution to surface experimental approaches and that these variations are highly dependent on the accessibility of the binding motif.[46] The arrangement of glycans and the linker used for immobilization have shown to influence affinity on the glycan array setting. Therefore, it is likely that also the arrangement of a protein on the surface can have a similar effect when the setting is reversed.[46],[47] The difference in affinities between ITC and BLI for the fungal versus the bacterial lectins may relate to their orientation on the surface. The proteins were immobilized to the surface of a streptavidin-coated sensor through biotinylation of their lysine residues. BambL has only one lysine per monomer, opposite to the binding surface, while FleA and SapL1 have several, some of which close to the binding sites. It is plausible that this would influence the binding of the lectins to the sensor and the exposure of their sites. […] In contrast, all binding sites and modalities are accessible in solution during ITC.
(§9) 1.4 B i ol ayer i n terferom etry
(§10) The mixture was incubate d for 30 minutes with stirring. […] Biotinylated protein at 100nM concentrations were loaded on the sensor. […]

FleA [8] = target: T1, FleA; assay: as above; type: binding; conditions: 25 °C; protein immobilized; read-out: Kobs (nM) FleA BLI
Text: as §8, §9, §10

SapL1 [9] = target: T3, SapL1; assay: as above; type: binding; conditions: read-out: Kobs (nM) SapL1 BLI; 25 °C; protein immobilized
Text: as §8, §9, §10

SapL1 [10] = target: T3, SapL1; assay: Isothermal titration calorimetry (ITC); type: binding; conditions: for N stoichiometry SapL1 ITC: ratio of compound per SapL1 monomer (six binding sites); for -TΔS (kJ/mol) SapL1 binding / ΔH (kJ/mol) SapL1 binding: Table S2, ITC 25 °C
Text: as §1, §2, §3
Ta b le S2. Microcalorimetry data relative to S apL1 binding. […]

FleA, SapL1, and BambL = target: FleA, SapL1, and BambL; set-up: method as in PMID 24340081, PMID 34373510, PMID 22170069; conditions: range over FleA, read-out: Kd of α-methyl fucose; cited from earlier work
[11] = test system: adhesion of Af293.1 spores to A549 cells; assay: Adhesion assay of A. fumigatus conidia to lung epithelial cells; type: cell-based, Aspergillus fumigatus
Method: In our adhesion assay, A549 cells were cultured in a well-plate until a confluent layer was obtained and then challenged with A. fumigatus conidia in the presence or absence of FleA inhibitors. After incubation and washing to remove unbound spores from the cell layer, imaging was performed by confocal microscopy (Figure 4). The detection of fungi was facilitated by the availability of Af293.1, a strain originally derived from a clinical isolate and genetically modified to constitutively express red fluorescent protein.[53] Cell nuclei were stained with Hoechst fluorescent dye for visualization.[54] Cell and spore counts were calculated by ImageJ software and used to express adhesion efficiencies.
Figure 5 Adhesion of Af293.1 to A459. The black bars refer to the conditions where compounds and spores were pre-incubated 1 h prior infection. The white-striped bars refer to the conditions where compounds were added 1 h after infection. *Significant difference to the control (chi-square test, followed by Bonferroni’s multiple comparison test).
[…] Unbound conidia were removed carefully by washin g 4 times with m e di a (D ME M + 10% F BS). […] Fluorescence emission of Hoechst was de te cte d us i n g the 400- 600 nm spectral band and red fluorescence emission of R F P was detected with the 560- 700 n m s pe ctr al ban d. […]

SMILES: C[C@@H]1O[C@@H](OCCN=[N+]=[N-])[C@@H](O)[C@H](O)[C@@H]1O [2a]
- Kd (FleA [1]; 25 °C): 97600 ± 300 nM
- N stoichiometry FleA ITC (FleA [1]; 25 °C): 4.1 ± 0.02
- -TΔS (kJ/mol) FleA binding (FleA [1]): 16 ± 4 kJ/mol
- ΔH (kJ/mol) FleA binding (FleA [1]): -39 ± 4 kJ/mol
- Kd (BambL [2]; 25 °C): 2140 ± 80 nM
- -TΔS (kJ/mol) BambL binding (BambL [2]): 17 ± 1 kJ/mol
- ΔH (kJ/mol) BambL binding (BambL [2]): -50 ± 1 kJ/mol
- N BambL binding (Table S3) (BambL [2]): 1.81 ± 0.01

SMILES: C[C@@H]1OC(O)[C@@H](O)[C@H](O)[C@@H]1O (stereo partly drawn) [L-Fuc]
- Kd (FleA [3]): 209000 nM

SMILES: C[C@@H]1O[C@@H](OCCNC(=O)CCOCCOCCOCCOCCNC(=O)Cc2ccc(SCc3c(CSc4ccc(CC(=O)NCCOCCOCCOCCOCCC(=O)NCCO[C@@H]5O[C@@H](C)[C@@H](O)[C@@H](O)[C@@H]5O)cc4)c(CSc4ccc(CC(=O)NCCOCCOCCOCCOCCC(=O)NCCO[C@@H]5O[C@@H](C)[C@@H](O)[C@@H](O)[C@@H]5O)cc4)c(CSc4ccc(CC(=O)NCCOCCOCCOCCOCCC(=O)NCCO[C@@H]5O[C@@H](C)[C@@H](O)[C@@H](O)[C@@H]5O)cc4)c(CSc4ccc(CC(=O)NCCOCCOCCOCCOCCC(=O)NCCO[C@@H]5O[C@@H](C)[C@@H](O)[C@@H](O)[C@@H]5O)cc4)c3CSc3ccc(CC(=O)NCCOCCOCCOCCOCCC(=O)NCCO[C@@H]4O[C@@H](C)[C@@H](O)[C@@H](O)[C@@H]4O)cc3)cc2)[C@@H](O)[C@H](O)[C@@H]1O [hexa-4]
- IC50 (BambL [4]): 31 ± 3 nM
- IC50 (FleA [5]): 148 ± 6 nM
- IC50 (SapL1 [6]): 43 ± 6 nM
- β affinity enhancement (Kd,mono/Kd,multi) FleA ITC (FleA [1]; 25 °C): 849
- Kd (FleA [1]; 25 °C): 115 ± 4 nM
- N stoichiometry FleA ITC (FleA [1]; 25 °C): 0.8 ± 0.02 and 0.8
- β/v affinity enhancement per single sugar FleA ITC (FleA [1]; 25 °C, v = valency): 142
- -TΔS (kJ/mol) FleA binding (FleA [1]): 206 ± 6 kJ/mol
- ΔH (kJ/mol) FleA binding (FleA [1]): -246 ± 6 kJ/mol
- Kd (BambL [7]): 1.6 ± 0.1 nM
- Kd (FleA [8]): 4.1 ± 0.1 nM
- Kd (SapL1 [9]): 1.2 ± 0.2 nM
- β affinity enhancement (Kd,mono/Kd,multi) BambL ITC (BambL [2]; 25 °C): 455
- Kd (BambL [2]; 25 °C): 4.7 ± 0.9 nM
- N stoichiometry BambL ITC (BambL [2]; 25 °C, ratio of compound per BambL trimer (six binding sites)): 1.05
- β/v affinity enhancement per single sugar BambL ITC (BambL [2]; 25 °C, v = valency): 76
- -TΔS (kJ/mol) BambL binding (BambL [2]): 249 ± 10 kJ/mol
- ΔH (kJ/mol) BambL binding (BambL [2]): -296 ± 9 kJ/mol
- N BambL binding (Table S3) (BambL [2]): 0.35 ± 0.01
- β affinity enhancement (Kd,mono/Kd,multi) SapL1 ITC (SapL1 [10]; 25 °C): 2735
- N stoichiometry SapL1 ITC (SapL1 [10]; 25 °C): 0.72 ± 0.02 and 0.72
- β/v affinity enhancement per single sugar SapL1 ITC (SapL1 [10]; 25 °C, v = valency): 456
- -TΔS (kJ/mol) SapL1 binding (SapL1 [10]): 155 ± 12 kJ/mol
- ΔH (kJ/mol) SapL1 binding (SapL1 [10]): -199 ± 13 kJ/mol
- Kd (SapL1 [10]; read-out: Kd (nM) SapL1 ITC, 25 °C, 20 mM Tris, 100 mM NaCl, pH 8.0): 25 nM and 24.9 nM

SMILES: CO[C@@H]1O[C@@H](C)[C@@H](O)[C@@H](O)[C@@H]1O [α-Me-Fuc, α-methyl fucose, reference compound]
- IC50 (BambL [4]): 1400 ± 200 nM
- IC50 (FleA [5]): 111000 nM
- Kd (FleA, SapL1, and BambL): 1000 to 200000 nM
- N stoichiometry SapL1 ITC (SapL1 [10]; 25 °C): 3.52 ± 0.13
- -TΔS (kJ/mol) SapL1 binding (SapL1 [10]): 27 ± 2 kJ/mol
- ΔH (kJ/mol) SapL1 binding (SapL1 [10]): -63 ± 11 kJ/mol
- anti-adhesive effect ([11]; 0.1 mM, spores preincubated with compound, MOI 2, Figure S3): ineffective
- concentration needed to elicit any measurable anti-adhesive properties ([11]; control experiment, preincubation): 1 mM

SMILES: CC(=O)N[C@H]1C(O)O[C@H](CO)[C@@H](O[C@@H]2O[C@@H](C)[C@@H](O)[C@@H](O)[C@@H]2O)[C@@H]1O (stereo partly shown) [αFuc(1–4)GlcNAc]
- Kd (FleA [3]): 63000 nM
